Source: US5488060A, “Substituted thiadiazoles, compositions containing them and their use as antimicrobial and marine antifouling agents” (The Dow Chemical Company, priority 1994, dated 1996)
Converted amounts (≈) assume the structure as drawn. Read-outs that look alike come from different tables or passages of the source.

Tests used:
Assay type in all cases: cell-based
Bacillus subtilis (Bs) = assay: Minimum inhibitory concentration (MIC) in nutrient agar, Bacillus subtilis
Procedure: (§1) The antimicrobial activity of the compounds of the present invention is set forth as the minimum inhibitory concentration (MIC) for the active compounds and is determined for nine (9) bacteria, using nutrient agar, and seven (7) yeast and fungi, using malt yeast agar. This determination is conducted using a one percent solution of the test compound prepared in a mixture of acetone and water.
(§2) Nutrient agar is prepared at pH 6.8, representing a neutral medium, and at pH 8.2, representing an alkaline medium. The nutrient agars are prepared by adding 23 g of nutrient agar to one-liter of deionized water. In addition, the alkaline medium is prepared by adjusting a 0.04M solution of N-[tris-(hydroxymethyl)methyl]glycine buffered deionized water with concentrated sodium hydroxide to a pH of 8.5.
(§3) The test tubes containing the agar are cooled in a water bath until the temperature of the agar is 48° C. Then, an appropriate amount of the one percent solution of the test compound is added (except in the controls where no compound is added) to the respective test tubes so that the final concentrations are 500, […], 100, 50, 25, 10, 5, 2.5, 1.0 and zero parts per million of the test compound in the agar, thus having a known concentration of test compound dispersed therein. The contents of the test tubes are then transferred to respective petri plates. After drying for 24 hours, the petri plates containing nutrient agar are inoculated with bacteria and those containing malt yeast agar are inoculated with yeast and fungi.
(§4) The inoculation with bacteria is accomplished by using the following procedure. Twenty-four hour-cultures of each of the bacteria are prepared by incubating the respective bacteria in tubes containing nutrient broth for 24 hours at 30° C. in a shaker. Dilutions of each of the 24 hour-cultures are made so that nine separate suspensions (one for each of the nine test bacteria) are made, each containing 10^8 colony forming units (CFU) per mL of suspension of a particular bacteria. Aliquots of 0.3 mL of each of the bacterial suspensions are used to fill the individual wells of Steer's Replicator. For each microbial suspension, 0.3 mL was used to fill three wells (i.e., three wells of 0.3 mL each) so that for the nine different bacteria, 27 wells are filled. The Steer's Replicator is then used to inoculate both the neutral and alkaline pH nutrient agar petri plates.
(§5) The inoculated petri plates are incubated at 30° C. for 48 hours and then read to determine if the test compound which is incorporated into the agar prevented growth of the respective bacteria.

[1] = system: Enterobacter aerogenes (Ea); assay: Minimum inhibitory concentration (MIC) in nutrient agar, Enterobacter aerogenes; settings: Klebsiella aerogenes, 48 h
Procedure: as §1, §2, §3, §4, §5

Escherichia coli (Ec) = assay: Minimum inhibitory concentration (MIC) in nutrient agar, Escherichia coli
Procedure: as §1, §2, §3, §4, §5

[2] = system: Klebsiella pneumoniae (Kp); assay: Minimum inhibitory concentration (MIC) in nutrient agar, Klebsiella pneumoniae
Procedure: as §1, §2, §3, §4, §5

Proteus vulgaris (Pv) = assay: Minimum inhibitory concentration (MIC) in nutrient agar, Proteus vulgaris; settings: 48 h
Procedure: as §1, §2, §3, §4, §5

[3] = system: Pseudomonas aeruginosa (PRD-10); assay: Minimum inhibitory concentration (MIC) in nutrient agar, Pseudomonas aeruginosa PRD-10; settings: 48 h
Procedure: as §1, §2, §3, §4, §5

[4] = system: Pseudomonas aeruginosa (Pa); assay: Minimum inhibitory concentration (MIC) in nutrient agar, Pseudomonas aeruginosa; settings: 30° C., 48 hours, read-out: Minimum Inhibitory Concentration, Pa
Procedure: as §1, §2, §3, §4, §5

[5] = system: Salmonella choleraesuis (Se); assay: Minimum inhibitory concentration (MIC) in nutrient agar, Salmonella choleraesuis; settings: Salmonella enterica
Procedure: as §1, §2, §3, §4, §5

[6] = system: Staphylococcus aureus (Sa); assay: Minimum inhibitory concentration (MIC) in nutrient agar, Staphylococcus aureus
Procedure: as §1, §2, §3, §4, §5

Aspergillus niger (An) = assay: Minimum inhibitory concentration (MIC) in malt yeast agar, Aspergillus niger
Procedure: as §1
(§6) Malt yeast agar is prepared at pH 5.5 by adding 3 g yeast extract and 45 g malt agar per liter of deionized water. The specific agar is dispensed in 30 mL aliquots into 25×200 mm test tubes, capped and autoclaved for 15 minutes at 115° C.
as §3
(§7) The inoculation with the yeast and fungi is accomplished as follows. Cultures of yeast and fungi are incubated for seven days on malt yeast agar at 30° C. These cultures are used to prepare suspensions by the following procedure. A suspension of each organism is prepared by adding 10 mL of sterile saline and 10 microliters of octylphenoxy polyethoxy ethanol to the agar slant of yeast or fungi. The sterile saline/octylphenoxy potyethoxy ethanol solution is then agitated with a sterile swab to suspend the microorganism grown on the slant. Each resulting suspension is diluted into sterile saline (1 part suspension: 9 parts sterile saline). Aliquots of these dilutions are placed in individual wells of Steer's Replicator and petri plates inoculated as previously described. The petri plates are incubated at 30° C. and read after 48 hours for yeast and 72 hours for fungi.

Candida albicans (Ca) = assay: Minimum inhibitory concentration (MIC) in malt yeast agar, Candida albicans; settings: pH 5.5; malt yeast agar, 30° C., 48 hours for yeast; read-out: Minimum Inhibitory Concentration, Ca
Procedure: as §1, §6, §3, §7

[7] = system: Penicillium chrysogenum (Pc); assay: Minimum inhibitory concentration (MIC) in malt yeast agar, Penicillium chrysogenum; settings: 72 h, pH 5.5, read-out: Minimum Inhibitory Concentration, PC
Procedure: as §1, §6, §3, §7

[8] = system: Saccharomyces cerevisiae (Sc); assay: Minimum inhibitory concentration (MIC) in malt yeast agar, Saccharomyces cerevisiae
Procedure: as §1, §6, §3, §7

Trichoderma viride (Tv) = assay: Minimum inhibitory concentration (MIC) in malt yeast agar, Trichoderma viride; settings: 72 h, pH 5.5, read-out: Minimum Inhibitory Concentration, Tv
Procedure: as §1, §6, §3, §7

[9] = system: Aureobasidium pullulan (Ap); assay: Minimum inhibitory concentration (MIC) in malt yeast agar, Aureobasidium pullulan
Procedure: as §1, §6, §3, §7

Fusarium oxysporum (Fo) = assay: Minimum inhibitory concentration (MIC) in malt yeast agar, Fusarium oxysporum
Procedure: as §1, §6, §3, §7

[10] = 48 h, pH 8.2, read-out: Minimum Inhibitory Concentration, Bs
[11] = pH 6.8, nutrient agar, 30° C., 48 hours, read-out: Minimum Inhibitory Concentration, Bs
[12] = pH 6.8, read-out: Minimum Inhibitory Concentration, Ea
[13] = pH 8.2, read-out: Minimum Inhibitory Concentration, Ea
[14] = 48 h, pH 8.2, read-out: Minimum Inhibitory Concentration, Ec
[15] = pH 6.8, read-out: Minimum Inhibitory Concentration, Pv
[16] = pH 8.2, read-out: Minimum Inhibitory Concentration, Pv
[17] = pH 6.8, read-out: Minimum Inhibitory Concentration, PRD
[18] = pH 8.2, read-out: Minimum Inhibitory Concentration, PRD
[19] = 48 h, pH 8.2, read-out: Minimum Inhibitory Concentration, SC
[20] = 48 h, pH 8.2, read-out: Minimum Inhibitory Concentration, Sa
[21] = pH 6.8, nutrient agar, 30° C., 48 hours, read-out: Minimum Inhibitory Concentration, Sa

SMILES	MIC (Bacillus subtilis (Bs); [10]) [µg/mL]	MIC (Bacillus subtilis (Bs); [11]) [µg/mL]	MIC [1, 12] [µg/mL]	MIC [1, 13] [µg/mL]	MIC (Escherichia coli (Ec); [14]) [µg/mL]	MIC (Proteus vulgaris (Pv); [15]) [µg/mL]	MIC (Proteus vulgaris (Pv); [16]) [µg/mL]	MIC [3, 17] [µg/mL]	MIC [3, 18] [µg/mL]	MIC ([4]; pH 6.8, nutrient agar) [µg/mL]	MIC ([4]; pH 8.2, nutrient agar) [µg/mL]	MIC [5, 19] [µg/mL]	MIC [6, 20] [µg/mL]	MIC [6, 21] [µg/mL]	MIC (Candida albicans (Ca)) [µg/mL]	MIC [7] [µg/mL]	MIC (Trichoderma viride (Tv)) [µg/mL]	also measured
N#CSc1nsnc1-c1ccc(Cl)cc1 [Example II, 4-(4-Chlorophenyl)-3-thiocyanato-1,2,5-thiadiazole]	500 (≈ 1970 µM)	250 (≈ 985 µM)	> 500	> 500	> 500	> 500	> 500	> 500	> 500	> 500	500 (≈ 1970 µM)	500 (≈ 1970 µM)	500 (≈ 1970 µM)	250 (≈ 985 µM)	< 10	< 10	< 10	MIC (Escherichia coli (Ec); 48 h, pH 6.8, read-out: Minimum Inhibitory Concentration, Ec): 50 µg/mL (≈ 197 µM); MIC ([2]; 48 h, pH 6.8, read-out: Minimum Inhibitory Concentration, Kp): 50 µg/mL (≈ 197 µM); MIC ([2]; pH 8.2, nutrient agar, 30° C., 48 hours, read-out: Minimum Inhibitory Concentration, Kp): 250 µg/mL (≈ 985 µM); MIC ([5]; 48 h, pH 6.8, read-out: Minimum Inhibitory Concentration, SC): > 500 µg/mL; MIC (Aspergillus niger (An); pH 5.5, malt yeast agar, 30° C., 72 hours for fungi, read-out: Minimum Inhibitory Concentration, An): < 10 µg/mL; MIC ([8]; pH 5.5, malt yeast agar, 30° C., 48 hours for yeast, read-out: Minimum Inhibitory Concentration, SC): < 10 µg/mL; MIC ([9]; pH 5.5, malt yeast agar, 30° C., read-out: Minimum Inhibitory Concentration, Ap): < 10 µg/mL; MIC (Fusarium oxysporum (Fo); pH 5.5, malt yeast agar, 30° C., 72 hours for fungi, read-out: Minimum Inhibitory Concentration, Fo): < 10 µg/mL
N#CSc1nsnc1-c1ccccc1Cl [Example IV, 4-(2-Chlorophenyl)-3-thiocyanatol-1,2,5-thiadiazole]	250 (≈ 985 µM)	< 10	> 500	500 (≈ 1970 µM)	500 (≈ 1970 µM)	> 500	500 (≈ 1970 µM)	> 500	500 (≈ 1970 µM)	> 500	500 (≈ 1970 µM)	500 (≈ 1970 µM)	500 (≈ 1970 µM)	25 (≈ 98.5 µM)	< 10	10 (≈ 39.4 µM)	10 (≈ 39.4 µM)	MIC (Escherichia coli (Ec); pH 6.8, nutrient agar, 30° C., 48 hours, read-out: Minimum Inhibitory Concentration, Ec): 250 µg/mL (≈ 985 µM); MIC ([2]; 48 h, pH 8.2, read-out: Minimum Inhibitory Concentration, Kp): 500 µg/mL (≈ 1970 µM); MIC ([2]; pH 6.8, nutrient agar, 30° C., 48 hours, read-out: Minimum Inhibitory Concentration, Kp): > 500 µg/mL; MIC ([5]; pH 6.8, nutrient agar, 30° C., 48 hours, read-out: Minimum Inhibitory Concentration, SC): 100 µg/mL (≈ 394 µM); MIC (Aspergillus niger (An); 72 h, pH 5.5, read-out: Minimum Inhibitory Concentration, An): 25 µg/mL (≈ 98.5 µM); MIC ([8]; 48 h, pH 5.5, read-out: Minimum Inhibitory Concentration, SC): 2.5 µg/mL (≈ 9.85 µM); MIC ([9]; pH 5.5, read-out: Minimum Inhibitory Concentration, Ap): 5 µg/mL (≈ 19.7 µM); MIC (Fusarium oxysporum (Fo); 72 h, pH 5.5, read-out: Minimum Inhibitory Concentration, Fo): 5 µg/mL (≈ 19.7 µM)
